From patent US12358847B2, “Liquid formulations of urease inhibitors for fertilizers” (Soilgenic Technologies, LLC, priority 2012, dated 2025)

Legend:
[1] = Dynamic viscosity of protic solvents with DMSO vs. NMP co-solvent (Brookfield viscometer); assay type: physicochemical; settings: 21° C.; in propylene glycol, glycerin, MIPA
Source text: Dynamic viscosity measurements were collected for propylene glycol, glycerin, and a representative alkanolamine (monoisopropanolamine, MIPA) with increasing levels of DMSO and NMP. A Brookfield LVDV-E digital rotational viscometer with LVDV-E spindle set (Brookfield Engineering Labs, Inc., Middleboro, Mass.) was employed for this work and was calibrated using Cannon […] general purpose, synthetic base oil viscosity calibration standard solution (Cannon Instrument Company, State College, PA). The sampling was conducted at 21° C.

[2] = Maximum Allowable Dosage Level per day (California Proposition 65); cited from earlier work
[3] = in vivo; cited from earlier work
[4] = in vivo; cited from earlier work; remark: listed apart in the source
[5] = Accelerated chemical stability of NBPT solutions at 50 °C, HPLC; settings: 45 days at 50±1° C.
[6] = 25° C.; cited from earlier work

C[S+](C)[O-] [Dimethyl sulfoxide, dimethyl sulfoxide]
reducing the viscosity of viscous formulations, DMSO vs. NMP [1]: virtually no difference | Inhalation toxicity (MADL) [2]: None established | Dermal LD-50 [3]: 40,000 | Oral LD-50 [4]: 14,500-28,300

CN1CCCC1=O [N-methyl pyrrolidone, reference compound]
Inhalation toxicity (MADL) [2]: 3200 µg/day | Dermal LD-50 [3]: 8,000 | Oral LD-50 [4]: 3,914

CCCCNP(N)(N)=S [NBPT, N-(n-butyl) thiophosphoric triamide]
NBPT deterioration at elevated temperature ([5]; solution of example 4: 50% PG, 25% DMSO, 25% NBPT): did not have significant deterioration | NBPT deterioration at elevated temperature ([5]; solution of example 6: 35% PG, 40% DMSO, 25% NBPT): did not have significant deterioration | NBPT deterioration at elevated temperature ([5]; solution of example 8: 20% PG, 40% DMSO, 40% NBPT): did not have significant deterioration | NBPT deterioration at elevated temperature ([5]; solution of example 10: 48.5% glycerine, 1.5% methanol, 25% DMSO, 25% NBPT): did not have significant deterioration | NBPT deterioration at elevated temperature ([5]; solution of example 12: 33.5% glycerine, 1.5% methanol, 25% DMSO, 40% NBPT): did not have significant deterioration

CC(O)CO (stereo not shown) [propylene glycol]
dynamic viscosity [6]: 48.8 centipoise
